Laboratory results from US20260220796A1, “Systems and Methods for High Throughput Single Molecule Tracking in Living Cells” (EIKON THERAPEUTICS, INC., priority 2022, published 2026).
Entries after “also recorded” stand apart in the source; their conditions may differ. Where two headings read alike, the source gives them in different places.

What was measured:
Estrogen Receptor (ER) [1] = biological target: T1, Estrogen Receptor (ER) (Homo sapiens, UniProt P03372); test: htSMT of Halo-ER in U2OS cells (fbound, Dfree); type: cell-based; conditions: for change in ER fbound (direction): follow-up of screen actives, dose titration or 100 nM
T1 construct: expressed in transfected cells
T1 sequence (P03372 1-595): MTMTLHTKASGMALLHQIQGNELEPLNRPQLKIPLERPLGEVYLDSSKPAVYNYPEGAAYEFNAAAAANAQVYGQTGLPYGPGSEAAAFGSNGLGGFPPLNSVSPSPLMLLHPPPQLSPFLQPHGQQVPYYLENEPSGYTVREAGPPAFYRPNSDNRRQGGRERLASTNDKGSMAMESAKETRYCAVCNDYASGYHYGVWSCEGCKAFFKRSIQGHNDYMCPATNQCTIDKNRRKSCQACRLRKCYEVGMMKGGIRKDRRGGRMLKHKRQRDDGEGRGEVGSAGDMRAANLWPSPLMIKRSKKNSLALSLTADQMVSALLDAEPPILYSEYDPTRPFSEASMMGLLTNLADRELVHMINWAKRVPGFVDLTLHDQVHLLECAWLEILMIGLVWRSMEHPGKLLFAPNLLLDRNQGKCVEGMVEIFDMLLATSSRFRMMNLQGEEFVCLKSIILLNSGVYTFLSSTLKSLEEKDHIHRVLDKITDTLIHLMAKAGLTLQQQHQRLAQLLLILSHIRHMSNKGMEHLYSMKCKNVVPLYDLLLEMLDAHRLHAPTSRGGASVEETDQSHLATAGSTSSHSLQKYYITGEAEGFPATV

[2] = biological target: T2, glucocorticoid receptor (GR) (Homo sapiens, UniProt P04150); test: htSMT of Halo-GR in U2OS cells; type: cell-based; conditions: 1 μM antagonist, singly or with cognate agonist, FIG. 36D
T2 construct: Because U2OS cells express GR endogenously, HaloTag was inserted right before the stop codon of endogenous NR3C1; endogenous in cells; host or cells: U2OS, CRISPR/Cas9 HaloTag knock-in at the endogenous NR3C1 locus
T2 sequence (P04150 1-777): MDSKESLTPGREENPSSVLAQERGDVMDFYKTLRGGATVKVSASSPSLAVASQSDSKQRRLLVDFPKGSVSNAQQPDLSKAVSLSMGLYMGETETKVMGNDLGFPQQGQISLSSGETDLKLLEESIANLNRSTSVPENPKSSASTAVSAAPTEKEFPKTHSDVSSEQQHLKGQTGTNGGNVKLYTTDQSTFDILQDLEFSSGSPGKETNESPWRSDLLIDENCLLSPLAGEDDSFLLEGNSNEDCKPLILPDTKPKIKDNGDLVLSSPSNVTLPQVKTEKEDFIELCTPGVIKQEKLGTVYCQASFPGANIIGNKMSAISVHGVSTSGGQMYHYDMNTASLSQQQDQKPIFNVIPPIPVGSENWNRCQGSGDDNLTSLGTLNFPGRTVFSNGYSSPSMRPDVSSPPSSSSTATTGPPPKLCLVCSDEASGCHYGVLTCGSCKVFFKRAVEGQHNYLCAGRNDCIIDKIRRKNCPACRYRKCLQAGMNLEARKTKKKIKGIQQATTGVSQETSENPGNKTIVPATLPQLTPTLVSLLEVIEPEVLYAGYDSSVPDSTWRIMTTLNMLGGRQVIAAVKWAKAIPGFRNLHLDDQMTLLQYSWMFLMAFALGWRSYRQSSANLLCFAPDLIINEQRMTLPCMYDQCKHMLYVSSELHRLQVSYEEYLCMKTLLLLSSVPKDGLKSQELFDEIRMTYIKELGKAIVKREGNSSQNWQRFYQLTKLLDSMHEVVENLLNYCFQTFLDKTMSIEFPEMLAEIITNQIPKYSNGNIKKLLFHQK
Text: Where appropriate, compounds were serially diluted in an Echo Qualified 384-Well Low Dead Volume Source Microplate (0018544, Beckman Coulter) to generate dose-titration source material.

androgen receptor (AR) = androgen receptor (AR) (Homo sapiens, UniProt P10275)
androgen receptor (AR), sequence (P10275 whole entry): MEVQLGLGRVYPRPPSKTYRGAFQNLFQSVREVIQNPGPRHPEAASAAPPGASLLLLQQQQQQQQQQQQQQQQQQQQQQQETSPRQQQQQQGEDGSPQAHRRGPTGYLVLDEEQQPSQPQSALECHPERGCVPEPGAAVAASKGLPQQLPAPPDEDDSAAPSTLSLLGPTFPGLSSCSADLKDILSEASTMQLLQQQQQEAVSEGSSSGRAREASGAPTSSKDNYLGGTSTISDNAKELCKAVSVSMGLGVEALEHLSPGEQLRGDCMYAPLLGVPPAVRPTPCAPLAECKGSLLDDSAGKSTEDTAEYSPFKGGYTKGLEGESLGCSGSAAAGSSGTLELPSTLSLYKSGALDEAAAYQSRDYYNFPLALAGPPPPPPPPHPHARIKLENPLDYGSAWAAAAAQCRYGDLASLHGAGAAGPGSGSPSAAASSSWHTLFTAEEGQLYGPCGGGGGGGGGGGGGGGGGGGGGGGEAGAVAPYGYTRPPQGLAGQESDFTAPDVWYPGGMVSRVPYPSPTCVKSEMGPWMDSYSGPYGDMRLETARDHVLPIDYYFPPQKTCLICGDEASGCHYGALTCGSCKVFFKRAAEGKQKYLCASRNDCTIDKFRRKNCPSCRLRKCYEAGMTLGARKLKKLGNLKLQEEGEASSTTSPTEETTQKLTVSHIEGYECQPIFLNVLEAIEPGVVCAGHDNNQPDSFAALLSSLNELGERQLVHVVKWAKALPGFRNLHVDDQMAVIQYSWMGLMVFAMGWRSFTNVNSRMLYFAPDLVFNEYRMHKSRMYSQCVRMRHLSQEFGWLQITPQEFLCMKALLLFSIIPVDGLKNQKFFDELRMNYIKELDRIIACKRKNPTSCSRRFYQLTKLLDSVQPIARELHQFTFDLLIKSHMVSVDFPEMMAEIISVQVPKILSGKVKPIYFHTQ

Estrogen Receptor (ER) [3] = biological target: T1, Estrogen Receptor (ER); test: kinetic SMT (kSMT) of ER after compound addition; type: cell-based; conditions: FIG. 18C, 18D
ER = biological target: T3, ER (Homo sapiens, UniProt P03372); test: Western blot of ER after compound treatment; type: cell-based; conditions: 24 hours prior to lysis; MCF7, T47d, U2OS Halo-ER; FIG. 22A
T3 construct: host or cells: Halo-ER U2OS, MCF7 or T47d (immunofluorescence)
T3 sequence (P03372 1-595): T1 sequence (P03372 1-595)

Estrogen Receptor (ER) [4] = biological target: T1, Estrogen Receptor (ER); test: residence time imaging of ER-Halo (track length survival); type: cell-based; conditions: 100 nM, versus DMSO, FIG. 18E

**Q.** With 4-hydroxytamoxifen as the molecule, how does the “change in ER fbound / ER movement in bioactive screen” value (Estrogen Receptor (ER) [1]) read?
**A.** significantly increased fbound

**Q.** And the “maximal increase in fbound, compared” value (Estrogen Receptor (ER) [1])?
**A.** lower maximal increases in fbound

**Q.** With `CN(C)c1ccc(C(c2ccc(N(C)C)cc2)c2cc([N+](=O)[O-])ccc2Cl)cc1` [AL082D06] as the molecule, how does the “effect on GR chromatin binding (change in fbound)” value [2] read?
**A.** decrease in chromatin binding

**Q.** How did the “effect on AR chromatin binding (change in fbound)” value (androgen receptor (AR)) turn out when `CC(O)c1cc(C(=O)N[C@@H](C)Cn2ccc(-c3ccc(C#N)c(Cl)c3)n2)[nH]n1` (stereo partly shown) [Darolutamide] was run?
**A.** decrease in chromatin binding

**Q.** For `COc1cccc(-c2cc(F)ccc2[C@H]2Cc3nc(N)nc(C)c3C(=O)N2)n1` [HSP990], which “change in ER fbound (direction)” value (Estrogen Receptor (ER) [1]) is on record?
**A.** increase in fbound

**Q.** And the “time course of overall effect on ER movement” value (“time course of overall effect” below) (Estrogen Receptor (ER) [3])?
**A.** reached a plateau after an hour

**Q.** `CC(C)C[C@H](NC(=O)[C@H](Cc1ccccc1)NC(=O)c1cnccn1)B(O)O` [bortezomib] was tested. Which “time course of overall effect” value (Estrogen Receptor (ER) [3]) did it give?
**A.** slowly increasing over the four-hour measurement window

**Q.** Which “time course of overall effect” value (Estrogen Receptor (ER) [3]) does the source give for `CC(C)C[C@H](NC(=O)[C@H](CCc1ccccc1)NC(=O)CN1CCOCC1)C(=O)N[C@@H](Cc1ccccc1)C(=O)N[C@@H](CC(C)C)C(=O)[C@@]1(C)CO1` [carfilzomib] here?
**A.** slowly increasing over the four-hour measurement window

**Q.** For `C[C@]12CC[C@@H]3c4ccc(O)cc4C[C@@H](CCCCCCCCC[S+]([O-])CCCC(F)(F)C(F)(F)F)[C@H]3[C@@H]1CC[C@@H]2O` (stereo partly shown) [fulvestrant], which “change in ER fbound / ER movement in bioactive screen” value (Estrogen Receptor (ER) [1]; 1 μM compound versus DMSO, 5,067-molecule screen, FIG. 15, 18A) is on record?
**A.** increase in fbound; also recorded: significantly increased fbound

**Q.** What about the “ER degradation (western blot)” value (ER) of the same molecule?
**A.** leads to the degradation of ER

**Q.** How did the “change in ER fbound (direction)” value (Estrogen Receptor (ER) [1]) turn out when `CC(C)c1cc(-c2n[nH]c(=O)n2-c2ccc3c(ccn3C)c2)c(O)cc1O` [ganetespib] was run?
**A.** increase in fbound

**Q.** What about the “time course of overall effect” value (Estrogen Receptor (ER) [3]) of the same molecule?
**A.** reached a plateau after an hour

**Q.** What about the “decrease in total number of long binding events” value (Estrogen Receptor (ER) [4]) of the same molecule?
**A.** four
